Experimental data taken from ChEMBL document CHEMBL4257084, “Novel functionalized 5-(phenoxymethyl)-1,3-dioxane analogs exhibiting cytochrome p450 inhibition and their method of use” (2016).

Target: T1, Cytochrome P450 11B1, mitochondrial (Homo sapiens, UniProt P15538)
T1 sequence (P15538 whole entry): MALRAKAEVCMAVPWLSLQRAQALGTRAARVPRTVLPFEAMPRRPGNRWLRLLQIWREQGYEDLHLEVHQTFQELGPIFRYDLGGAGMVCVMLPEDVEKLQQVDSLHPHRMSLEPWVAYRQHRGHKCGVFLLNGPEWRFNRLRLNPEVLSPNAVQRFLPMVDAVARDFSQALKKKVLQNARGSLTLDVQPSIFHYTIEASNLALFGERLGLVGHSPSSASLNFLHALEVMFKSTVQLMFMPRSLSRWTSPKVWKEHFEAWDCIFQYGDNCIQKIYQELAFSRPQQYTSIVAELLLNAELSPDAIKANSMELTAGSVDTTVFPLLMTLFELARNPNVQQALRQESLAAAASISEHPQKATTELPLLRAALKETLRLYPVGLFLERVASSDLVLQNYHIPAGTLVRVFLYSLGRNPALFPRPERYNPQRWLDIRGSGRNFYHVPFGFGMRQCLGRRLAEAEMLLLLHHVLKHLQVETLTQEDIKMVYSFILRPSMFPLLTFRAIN
Assay: Inhibition of recombinant CYP11 (unknown origin) expressed in human AD293 cells assessed as reduction in cortisol level preincubated for 60 mins followed by 11-deoxy cortisol substrate addition and measured after 12 hrs by LC-MS method
Assay type: cell-based

CS(=O)(=O)N1CCN(c2ccc(CO[C@H]3CO[C@@](Cn4ccnc4)(c4ccccc4Cl)OC3)cc2)CC1
IC50: 10 µM
